US20260297042A1, “BIARYLAMIDE DERIVATIVES AND THEIR USE AS PKMYT1 INHIBITORS” (CANCER RESEARCH TECHNOLOGY LIMITED, priority 2023, published 2026)
pIC50: −log10 of the molar value.

Assays:
OVCAR 3 cells = assay: Cancer cell line proliferation assay, ATP-based cell viability (Cell Titre Glow), OVCAR 3 (CCNE1-amplified); settings: KYSE30 (normal CCNE1) GI50 vs. OVCAR 3 (CCNE1-amplified) GI50
Procedure: (§1) Cancer cell lines with either normal (KYSE-30) or amplified CCNE1 expression (OVCAR 3 —ovarian cancer) were evaluated for their sensitivity to PKMYT1 inhibitors using Cell Titre Glow assay (Promega G7573) as endpoint to assess cell proliferation. The luminescence signal was read on a PHERAStar FS microplate reader (BMG Labtech). Data analysis was performed using Microsoft Excel® and Gl50 (concentration that achieves 50% cell growth proliferation inhibition) estimates generated with GraphPad Prism v9.

KYSE-30 cells = assay: Cancer cell line proliferation assay, ATP-based cell viability (Cell Titre Glow), KYSE-30 (normal CCNE1); settings: Homo sapiens, KYSE-30 cells (normal CCNE1), concentration that achieves 50% cell growth proliferation inhibition, read-out: KYSE30 Gl50
Procedure: as §1

Human PKMYT1 = target: T1, Human PKMYT1 (Homo sapiens, UniProt Q99640); assay: PKMYT1 biochemical ADP-Glo enzymatic assay; settings: ADP-Glo
T1 construct: Human PKMYT1 75-362 was cloned as a TEV cleavable 6xHis fusion; 6xHis (TEV cleavable) (cleaved yes); made in house; host or cells: bacterial cells
T1 sequence (Q99640 75-362): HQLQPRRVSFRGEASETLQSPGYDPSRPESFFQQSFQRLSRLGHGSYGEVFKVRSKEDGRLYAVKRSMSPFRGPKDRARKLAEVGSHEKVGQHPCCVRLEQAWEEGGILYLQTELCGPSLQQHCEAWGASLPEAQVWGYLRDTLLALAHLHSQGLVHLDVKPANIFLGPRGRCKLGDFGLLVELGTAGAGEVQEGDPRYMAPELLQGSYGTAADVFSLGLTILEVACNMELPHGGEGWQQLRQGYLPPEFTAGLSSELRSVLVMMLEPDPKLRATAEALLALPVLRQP
How it was run: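 IC50 derived from luminescence (ADP-Glo Max) after PKMYT1 kinase domain, 15 nM, turned over 500 µM ATP for 60 min at 26 °C. Buffer contained 10 mM MgCl2, 1 mM EGTA and 0.01% Brij-35 at pH 7.5.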

WEE1 = target: T2, WEE1 (Homo sapiens, UniProt P30291); assay: Selectivity versus WEE1 assay (ADP-Glo enzymatic assay); format: biochemical; settings: for pIC50: ADP-Glo; for PKMYT1 vs. WEE1 selectivity: fold difference in selectivity for PKMYT1 over WEE1
T2 construct: purchased Thermo Fisher PR7373A
T2 sequence (P30291 whole entry): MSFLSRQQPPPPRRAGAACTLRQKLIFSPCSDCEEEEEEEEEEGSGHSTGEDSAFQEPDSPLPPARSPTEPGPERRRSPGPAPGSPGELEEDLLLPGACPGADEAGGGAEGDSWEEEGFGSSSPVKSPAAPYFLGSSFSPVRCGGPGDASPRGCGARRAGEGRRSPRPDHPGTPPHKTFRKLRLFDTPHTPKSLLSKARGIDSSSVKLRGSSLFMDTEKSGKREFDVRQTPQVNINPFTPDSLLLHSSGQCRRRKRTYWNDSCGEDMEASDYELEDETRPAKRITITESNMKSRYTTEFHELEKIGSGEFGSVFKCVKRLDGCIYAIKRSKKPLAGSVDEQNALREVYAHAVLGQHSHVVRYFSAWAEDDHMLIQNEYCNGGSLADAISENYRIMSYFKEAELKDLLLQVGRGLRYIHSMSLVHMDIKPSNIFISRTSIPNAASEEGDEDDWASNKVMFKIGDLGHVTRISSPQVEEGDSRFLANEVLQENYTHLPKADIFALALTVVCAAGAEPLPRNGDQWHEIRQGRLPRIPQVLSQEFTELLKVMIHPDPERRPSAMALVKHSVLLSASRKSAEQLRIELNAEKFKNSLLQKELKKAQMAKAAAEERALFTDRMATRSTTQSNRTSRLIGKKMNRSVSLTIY
How it was run: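 Inhibition is measured as reduced ADP production, detected by luminescence with ADP-Glo, after enzyme (15 nM) and 30 µM ATP react for 60 min at 26° C in 1% DMSO-containing HEPES buffer, pH 7.5. Data are accepted only if replicate IC50s fall within 3-fold and r2 exceeds 0.9.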

[1] = PKMYT1 kinase domain 15 nM, banded values
[2] = 15 nM PKMYT1 kinase domain, 500 µM ATP, 60 minutes at 26° C., banded
[3] = 15 nM WEE1, 60 minutes at 26° C., banded
[4] = banded, ">N" = at least in this band but could be higher

SMILES | Selectivity ratio KYSE30 Gl50 vs. OVCAR3 Gl50 (OVCAR 3 cells) | GI50 (KYSE-30 cells) | pIC50 (Human PKMYT1; [1]) | pIC50 (WEE1; WEE1 15 nM, banded values) | PKMYT1 vs. WEE1 selectivity (WEE1; banded) | pIC50 (Human PKMYT1; [2]) | pIC50 (WEE1; [3]) | PKMYT1 vs. WEE1 selectivity (WEE1; [4])
Cc1ccc(O)c(C)c1NC(=O)c1cnc(Nc2cccc(OC(C)C)n2)s1 [BAA-429, N-(3-hydroxy-2,6-dimethylphenyl)-2-((6-isopropoxypyridin-2-yl)amino)thiazole-5-carboxamide] | Y (>20 fold) | < 500 nM | > 7.30 | < 4.96 | X (100-<1000 fold) | – | – | –
Cc1ccc(O)c(C)c1NC(=O)c1cnc(Nc2cc(C)n(C(C)C)n2)s1 [BAA-233, N-(3-hydroxy-2,6-dimethylphenyl)-2-((1-isopropyl-5-methyl-1H-pyrazol-3-yl)amino)thiazole-5-carboxamide] | Y (>20 fold) | > 5000 nM | – | – | – | > 7.30 | 6.00 to 7.30 | W (10-<100 fold)
Cc1ccc(O)c(C)c1NC(=O)c1cnc(Nc2nn(-c3ccccn3)cc2Cl)s1 [BAA-383, 2-((4-chloro-1-(pyridin-2-yl)-1H-pyrazol-3-yl)amino)-N-(3-hydroxy-2,6-dimethylphenyl) thiazole-5-carboxamide] | X (3-20 fold) | 500 to 5000 nM | – | – | – | > 7.30 | < 4.96 | Y (1000-5000 fold)
CCn1cc(C)c(Nc2ncc(C(=O)Nc3c(C)ccc(O)c3C)s2)n1 [BAA-477, 2-((1-ethyl-4-methyl-1H-pyrazol-3-yl)amino)-N-(3-hydroxy-2,6-dimethylphenyl)thiazole-5-carboxamide] | Y (>20 fold) | > 5000 nM | > 7.30 | 4.96 to 6.00 | X (100-<1000 fold) | – | – | –
CCN(CC(F)(F)F)C(=O)Cn1cc(C)c(Nc2ncc(C(=O)Nc3c(C)ccc(O)c3C)s2)n1 [BAA-502, 2-((1-(2-(ethyl(2,2,2-trifluoroethyl)amino)-2-oxoethyl)-4-methyl-1H-pyrazol-3-yl)amino)-N-(3-hydroxy-2,6-dimethylphenyl)thiazole-5-carboxamide] | Y (>20 fold) | > 5000 nM | > 7.30 | 4.96 to 6.00 | X (100-<1000 fold) | – | – | –
Cc1cc(Nc2ncc(C(=O)Nc3c(C)ccc(O)c3C)s2)nc(-c2ccc(F)cc2)n1 [BAA-307, 2-((2-(4-fluorophenyl)-6-methylpyrimidin-4-yl)amino)-N-(3-hydroxy-2,6-dimethylphenyl)thiazole-5-carboxamide] | Y (>20 fold) | 500 to 5000 nM | – | – | – | 6.00 to 7.30 | < 4.96 | Y (1000-5000 fold)
Cc1ccc(O)c(C)c1NC(=O)c1cnc(Nc2cc(-c3ccc(F)cc3)ccn2)s1 [BAA-294, 2-((4-(4-fluorophenyl)pyridin-2-yl)amino)-N-(3-hydroxy-2,6-dimethylphenyl)thiazole-5-carboxamide] | Y (>20 fold) | > 5000 nM | – | – | – | 6.00 to 7.30 | < 4.96 | X (100-<1000 fold)
Cc1cn(-c2scnc2C)nc1Nc1ncc(C(=O)Nc2c(C)ccc(O)c2C)s1 [BAA-386, N-(3-hydroxy-2,6-dimethylphenyl)-2-((4-methyl-1-(4-methylthiazol-5-yl)-1H-pyrazol-3-yl)amino)thiazole-5-carboxamide] | Y (>20 fold) | > 5000 nM | – | – | – | > 7.30 | 4.96 to 6.00 | X (100-<1000 fold)
Cc1ccc(NC(=O)OC(C)(C)C)nc1Nc1ncc(C(=O)Nc2c(C)ccc(O)c2C)s1 [BAA-329, tert-butyl (6-((5-((3-hydroxy-2,6-dimethylphenyl)carbamoyl)thiazol-2-yl)amino)-5-methylpyridin-2-yl)carbamate] | X (3-20 fold) | 500 to 5000 nM | – | – | – | 6.00 to 7.30 | < 4.96 | Y (1000-5000 fold)
Cc1ccc(O)c(C)c1NC(=O)c1cnc(Nc2cc(C)n(CC(C)C)n2)s1 [BAA-237, N-(3-hydroxy-2,6-dimethylphenyl)-2-((1-isobutyl-5-methyl-1H-pyrazol-3-yl)amino)thiazole-5-carboxamide] | Y (>20 fold) | 500 to 5000 nM | – | – | – | > 7.30 | 4.96 to 6.00 | W (10-<100 fold)
Cc1ccc(O)c(C)c1NC(=O)c1cnc(Nc2nn(C)cc2Cl)s1 [BAA-541, 2-((4-chloro-1-methyl-1H-pyrazol-3-yl)amino)-N-(3-hydroxy-2,6-dimethylphenyl)thiazole-5-carboxamide] | Y (>20 fold) | > 5000 nM | > 7.30 | 4.96 to 6.00 | X (100-<1000 fold) | – | – | –
Cc1cn(CC(=O)N2CCC(C)C2)nc1Nc1ncc(C(=O)Nc2c(C)ccc(O)c2C)s1 (centres unmarked) [BAA-497, N-(3-hydroxy-2,6-dimethylphenyl)-2-((4-methyl-1-(2-(3-methylpyrrolidin-1-yl)-2-oxoethyl)-1H-pyrazol-3-yl)amino)thiazole-5-carboxamide] | Y (>20 fold) | > 5000 nM | > 7.30 | 4.96 to 6.00 | X (100-<1000 fold) | – | – | –
CCOc1ccc(-n2cc(C)c(Nc3ncc(C(=O)Nc4c(C)ccc(O)c4C)s3)n2)cn1 [BAA-369, 2-((1-(6-ethoxypyridin-3-yl)-4-methyl-1H-pyrazol-3-yl)amino)-N-(3-hydroxy-2,6-dimethylphenyl)thiazole-5-carboxamide] | Y (>20 fold) | > 5000 nM | – | – | – | 6.00 to 7.30 | < 4.96 | X (100-<1000 fold)
Cc1ccc(O)c(C)c1NC(=O)c1cnc(Nc2cccc(-c3ncccn3)n2)s1 [BAA-403, N-(3-hydroxy-2,6-dimethylphenyl)-2-((6-(pyrimidin-2-yl)pyridin-2-yl)amino)thiazole-5-carboxamide] | Y (>20 fold) | > 5000 nM | > 7.30 | 6.00 to 7.30 | W (10-<100 fold) | – | – | –
Cc1cn(-c2cnc(Cl)cc2Br)nc1Nc1ncc(C(=O)Nc2c(C)ccc(O)c2C)s1 [BAA-378] | X (3-20 fold) | 500 to 5000 nM | – | – | – | 6.00 to 7.30 | 4.96 to 6.00 | W (10-<100 fold)
Cc1ccc(O)c(C)c1NC(=O)c1cnc(Nc2ccn(CC(C)C)n2)s1 [BAA-016, N-(3-hydroxy-2,6-dimethyl-phenyl)-2-[(1-isobutylpyrazol-3-yl)amino]thiazole-5-carboxamide] | X (3-20 fold) | 500 to 5000 nM | – | – | – | > 7.30 | 4.96 to 6.00 | W (10-<100 fold)
Cc1ccc(O)c(C)c1NC(=O)c1cnc(Nc2cccc(-c3cc(F)cc(F)c3)n2)s1 [BAA-315, 2-((6-(3,5-difluorophenyl)pyridin-2-yl)amino)-N-(3-hydroxy-2,6-dimethylphenyl)thiazole-5-carboxamide] | Y (>20 fold) | 500 to 5000 nM | – | – | – | > 7.30 | < 4.96 | Y (1000-5000 fold)
COCCn1cc(C)c(Nc2ncc(C(=O)Nc3c(C)ccc(O)c3C)s2)n1 [BAA-490, N-(3-hydroxy-2,6-dimethylphenyl)-2-((1-(2-methoxyethyl)-4-methyl-1H-pyazol-3-yl)amino)thiazole-5-carboxamide] | Y (>20 fold) | > 5000 nM | > 7.30 | 4.96 to 6.00 | X (100-<1000 fold) | – | – | –
CCn1nc(Nc2ncc(C(=O)Nc3c(C)ccc(O)c3C)s2)cc1C [BAA-495, 2-((1-ethyl-5-methyl-1H-pyrazol-3-yl)amino)-N-(3-hydroxy-2,6-dimethylphenyl)thiazole-5-carboxamide] | Y (>20 fold) | > 5000 nM | 6.00 to 7.30 | 4.96 to 6.00 | W (10-<100 fold) | – | – | –
